The target in test [1] is T1, IDO1 (Homo sapiens, UniProt P14902). Nature of the test: IDO1 Cellular Assay in HeLa Cells Stimulated with IFNγ. Type of test: cell-based. As to conditions: read-out: Hela IC50.
Test [2] deals with T1, IDO1. Description: IDO1 Human Whole Blood Assay. Also on record: Human whole blood was drawn in sodium heparin coated tubes from healthy internal donors; from tissue; host or cells: human whole blood from healthy donors, stimulated with LPS and IFNγ. As to conditions: LPS and IFNγ stimulated. The test is classed as cell-based.

Molecules are shown by their SMILES.

T1 sequence (P14902 whole entry): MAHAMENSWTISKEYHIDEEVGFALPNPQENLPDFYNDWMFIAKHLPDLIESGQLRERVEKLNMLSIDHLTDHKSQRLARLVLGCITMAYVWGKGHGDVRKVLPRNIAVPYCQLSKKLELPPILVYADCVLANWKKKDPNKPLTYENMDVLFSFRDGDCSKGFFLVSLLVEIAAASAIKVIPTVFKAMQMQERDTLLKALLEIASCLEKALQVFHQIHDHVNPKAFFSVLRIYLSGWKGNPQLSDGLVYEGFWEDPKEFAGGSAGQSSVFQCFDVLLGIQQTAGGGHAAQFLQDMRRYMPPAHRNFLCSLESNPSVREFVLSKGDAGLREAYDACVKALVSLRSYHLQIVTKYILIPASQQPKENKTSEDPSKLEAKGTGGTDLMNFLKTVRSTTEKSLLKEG

The term IC50 denotes the concentration that inhibits the measured activity by half. `O=C(OC1CC1)N1CCCc2nc(C3(C(=O)Nc4ccc(F)cc4)COC3)ccc21` [Example 266, cyclopropyl 6-(3-((4-fluorophenyl)carbamoyl)oxetan-3-yl)-3,4-dihydro-1,5-naphthyridine-1(2H)-carboxylate]: the IC50 came to 2.8 nM on IDO1 [1] (about 48 hours) and 4 nM against IDO1 [2].

For `O=C(C1CC1)N1CCc2nc(C3(C(=O)Nc4ccc(F)cc4)CCC3)ccc21` [Example 268, 1-[1-(cyclopropanecarbonyl)-2,3-dihydro-1H-pyrrolo[3,2-b]pyridin-5-yl]-N-(4-fluorophenyl)cyclobutane-1-carboxamide], the IC50 at IDO1 [1] (about 48 hours) amounted to 7.9 nM; at IDO1 [2], 325 nM.

`O=C(OC1CC1)N1CCc2cc(C3(C(=O)Nc4ccc(F)cc4)CCC3)ccc21` [Example 270, cyclopropyl 5-{1-[(4-fluorophenyl)carbamoyl]cyclobutyl}-2,3-dihydro-1H-indole-1-carboxylate]: the IC50 came out at 1.2 nM on IDO1 [1] (about 48 hours) and 41 nM against IDO1 [2].

Regarding `O=C(Nc1ccc(Cl)cc1)C1(c2ccc3c(n2)CCN3c2ccccn2)CCC1` [Example 272, N-(4-chlorophenyl)-1-[1-(pyridin-2-yl)-2,3-dihydro-1H-pyrrolo[3,2-b]pyridin-5-yl]cyclobutane-1-carboxamide], the IC50 came out at 1.9 nM at IDO1 [1] (about 48 hours) and 336 nM against IDO1 [2].

As for `O=C(OC1CC1)N1CCc2cc(C3(C(=O)Nc4ccc(Cl)cc4)CCC3)ccc21` [Example 273, cyclopropyl 5-{1-[(4-chlorophenyl)carbamoyl]cyclobutyl}-2,3-dihydro-1H-indole-1-carboxylate], the IC50 came to 2 nM at IDO1 [1] (about 48 hours) and 90 nM on IDO1 [2].

On to `O=C(c1cccc(Cl)c1)N1CCc2nc(C3(C(=O)Nc4ccc(F)cc4)CCC3)ccc21` [Example 275, 1-[1-(3-chlorobenzene-1-carbonyl)-2,3-dihydro-1H-pyrrolo[3,2-b]pyridin-5-yl]-N-(4-fluorophenyl)cyclobutane-1-carboxamide], for which the results for the IC50 at IDO1 [1] (about 48 hours) and against IDO1 [2] were 3 nM and 93 nM, respectively.

With `CC(NC(=O)c1ccc(F)cc1)c1ccc2c(n1)CCCN2C(=O)c1cc(Cl)ccn1` (centres unmarked) [Example 277, N-(1-(5-(4-chloropicolinoyl)-5,6,7,8-tetrahydro-1,5-naphthyridin-2-yl)ethyl)-4-fluorobenzamide], the values for the IC50 on IDO1 [1] (about 48 hours) and against IDO1 [2] were 2.3 nM and 71 nM, respectively.

For the compound `CC(NC(=O)c1ccc(F)cc1)c1ccc2c(n1)CCCN2C(=O)c1cc(C(F)(F)F)ccn1` (centres unmarked) [Example 278, 4-fluoro-N-(1-(5-(4-(trifluoromethyl)picolinoyl)-5,6,7,8-tetrahydro-1,5-naphthyridin-2-yl)ethyl)benzamide], the IC50 at IDO1 [1] (about 48 hours) came out at 472 nM; against IDO1 [2] it was 50 nM.

Regarding `CC(NC(=O)c1ccc(F)cc1)c1ccc2c(n1)CCCN2C(=O)c1cc(C(F)F)ccn1` (centres unmarked) [Example 279, N-(1-(5-(4-(difluoromethyl)picolinoyl)-5,6,7,8-tetrahydro-1,5-naphthyridin-2-yl)ethyl)-4-fluorobenzamide], the IC50 on IDO1 [1] (about 48 hours) came out at 7.3 nM; at IDO1 [2], 135 nM.

With `CCc1ccnc(C(=O)N2CCCc3nc(C(C)NC(=O)c4ccc(Cl)cc4)ccc32)c1` (centres unmarked) [Example 286, 4-chloro-N-(1-(5-(4-ethylpicolinoyl)-5,6,7,8-tetrahydro-1,5-naphthyridin-2-yl)ethyl)benzamide], the IC50 on IDO1 [1] (about 48 hours) came out at 1.2 nM; at IDO1 [2], 89 nM.

`Cc1ccnc(C(=O)N2CCCc3nc(C(C)NC(=O)c4ccc(Cl)cc4)ccc32)n1` (centres unmarked) [Example 287, 4-chloro-N-(1-(5-(4-methylpyrimidine-2-carbonyl)-5,6,7,8-tetrahydro-1,5-naphthyridin-2-yl)ethyl)benzamide]: the IC50 at IDO1 [1] (about 48 hours) came to 1.8 nM; on IDO1 [2] it was 6 nM.

As to `CC(NC(=O)c1ccc(Cl)cc1)c1ccc2c(n1)CCCN2C(=O)c1cc(C(F)F)ccn1` (centres unmarked) [Example 289, 4-chloro-N-(1-(5-(4-(difluoromethyl)picolinoyl)-5,6,7,8-tetrahydro-1,5-naphthyridin-2-yl)ethyl)benzamide], the half-maximal inhibitory concentration (IC50) at IDO1 [1] (about 48 hours) amounted to 2.7 nM; at IDO1 [2] it was 17 nM.

Regarding `Cc1cncc(N2CCCc3nc(C4(NC(=O)c5ccc(F)cc5)CC4)ccc32)n1` [Example 296, 4-fluoro-N-(1-(5-(6-methylpyrazin-2-yl)-5,6,7,8-tetrahydro-1,5-naphthyridin-2-yl)cyclopropyl)benzamide], the IC50 on IDO1 [1] (about 48 hours) came to 1.51 nM; against IDO1 [2] it was 163 nM.

Turning to `Cc1nccc(N2CCCc3nc(C4(NC(=O)c5ccc(Cl)nc5)CC4)ccc32)n1` [Example 300, 6-chloro-N-(1-(5-(2-methylpyrimidin-4-yl)-5,6,7,8-tetrahydro-1,5-naphthyridin-2-yl)cyclopropyl)nicotinamide], the IC50 at IDO1 [1] (about 48 hours) was 1.9 nM; against IDO1 [2], 63 nM.

Turning to `Cc1nccc(N2CCCc3nc(C4(NC(=O)c5ccc(Br)cc5)CC4)ccc32)n1` [Example 301, 4-bromo-N-(1-(5-(2-methylpyrimidin-4-yl)-5,6,7,8-tetrahydro-1,5-naphthyridin-2-yl)cyclopropyl)benzamide], the IC50 on IDO1 [1] (about 48 hours) is 1.69 nM; against IDO1 [2] it was 21 nM.

With `Cc1ccc(C(=O)NC2(c3ccc4c(n3)CCCN4c3ccnc(C)n3)CC2)cc1` [Example 303, 4-methyl-N-(1-(5-(2-methylpyrimidin-4-yl)-5,6,7,8-tetrahydro-1,5-naphthyridin-2-yl)cyclopropyl)benzamide], the IC50 on IDO1 [1] (about 48 hours) is 2.15 nM; against IDO1 [2] it was 106 nM.

Consider `Cc1nccc(N2CCCc3nc(C4(NC(=O)c5ccc(F)c(Br)c5)CC4)ccc32)n1` [Example 304, 3-bromo-4-fluoro-N-(1-(5-(2-methylpyrimidin-4-yl)-5,6,7,8-tetrahydro-1,5-naphthyridin-2-yl)cyclopropyl)benzamide], for which the 50% inhibitory concentration (IC50) amounted to 2.79 nM on IDO1 [1] (about 48 hours) and 81 nM at IDO1 [2].

Regarding `O=C(NC1(c2ccc3c(n2)CCCN3c2ccnc(C3CC3)n2)CC1)c1ccc(F)cc1` [Example 307, 5-(2-cyclopropylpyrimidin-4-yl)-2-(1-(4-fluorobenzamido)cyclopropyl)-5,6,7,8-tetrahydro-1,5-naphthyridin-1-ium 2,2,2-trifluoroacetate], the figures for the IC50 on IDO1 [1] (about 48 hours) and at IDO1 [2] were 0.89 nM and 63 nM, respectively.

With `CC(NC(=O)c1ccc(F)cc1)c1ccc2c(n1)CCCN2C(=O)OCC(F)F` (centres unmarked) [Example 309, 2,2-difluoroethyl 6-(1-(4-fluorobenzamido)ethyl)-3,4-dihydro-1,5-naphthyridine-1(2H)-carboxylate], the IC50 at IDO1 [1] stood at 24.6 nM; against IDO1 [2] it was 78 nM.

For the compound `CC(NC(=O)c1ccc(Cl)cc1)c1ccc2c(n1)CCCN2C(=O)OCC(F)(F)F` (centres unmarked) [Example 310], the concentration for half-maximal inhibition (IC50) is 1.61 nM on IDO1 [1] and 46 nM against IDO1 [2].

Consider `CC(NC(=O)c1ccc(F)cc1)c1ccc2c(n1)CCCN2C(=O)OC(C)(C)C(F)(F)F` (centres unmarked) [Example 312], for which the IC50 was 9.87 nM at IDO1 [1] and 47 nM on IDO1 [2].

In the case of `COC[C@@H](C)OC(=O)N1CCCc2nc(C(C)NC(=O)c3ccc(F)cc3)ccc21` (stereo partly drawn) [Example 315, (R)-1-methoxypropan-2-yl 6-(1-(4-fluorobenzamido)ethyl)-3,4-dihydro-1,5-naphthyridine-1(2H)-carboxylate], the IC50 on IDO1 [1] came out at 2.9 nM; against IDO1 [2], 18 nM.
